According to ChEMBL document CHEMBL1201862, “PubChem BioAssay data set” (2004):
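96-well plates; 48 h exposure; 5 concentrations. Endpoints by linear interpolation between flanking doses. Not reached: highest tested concentration assigned. GI50 = concentration required for 50% inhibition of growth.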 Active and inactive are the calls of the source. Rule as the data show it: active = GI50 up to about 1.1 µM and inactive = higher.

Legend:
Assay in all cases: growth of human tumour cells (NCI), 48 h
HT-29 = test system: HT-29
LOX IMVI = test system: LOX IMVI
SF-539 = test system: SF-539
U-251 = test system: U-251
HL-60 = test system: HL-60
M19-MEL = test system: M19-MEL
HOP-18 = test system: HOP-18
RXF 393 = test system: RXF 393
SNB-19 = test system: SNB-19
UACC-257 = test system: UACC-257
KM12 = test system: KM12
XF498 = test system: XF498
DLD-1 = test system: DLD-1
HCT-15 = test system: HCT-15
A549 = test system: A549
A498 = test system: A498
HCC 2998 = test system: HCC 2998
OVCAR-3 = test system: OVCAR-3
NCI-H23 = test system: NCI-H23
SNB-75 = test system: SNB-75
SF-268 = test system: SF-268
SK-MEL-2 = test system: SK-MEL-2
TK-10 = test system: TK-10
SF-295 = test system: SF-295
SK-OV-3 = test system: SK-OV-3
ACHN = test system: ACHN
M14 = test system: M14
HOP-62 = test system: HOP-62
SK-MEL-5 = test system: SK-MEL-5
NCI-H460 = test system: NCI-H460
KM-20L2 = test system: KM-20L2
SW-620 = test system: SW-620
Malme-3M = test system: Malme-3M
DMS-114 = test system: DMS-114
786-0 = test system: 786-0
UO-31 = test system: UO-31
UACC-62 = test system: UACC-62
OVCAR-5 = test system: OVCAR-5
HOP-92 = test system: HOP-92
OVCAR-4 = test system: OVCAR-4
SK-MEL-28 = test system: SK-MEL-28
COLO 205 = test system: COLO 205
NCI-H522 = test system: NCI-H522
RPMI-8226 = test system: RPMI-8226
CCRF-CEM = test system: CCRF-CEM
HCT-116 = test system: HCT-116
LXFL 529 = test system: LXFL 529
SN12C = test system: SN12C
EKVX = test system: EKVX
OVCAR-8 = test system: OVCAR-8
IGROV-1 = test system: IGROV-1
SNB-78 = test system: SNB-78
NCI-H226 = test system: NCI-H226

CCCCCCCCCCCCCC(=S)N/C=C/OC
GI50 (HT-29): 21.3 µM (inactive) | GI50 (LOX IMVI): 20.5 µM (inactive) | GI50 (SF-539): 66.5 µM (inactive) | GI50 (U-251): 21.4 µM (inactive) | GI50 (HL-60): 16.1 µM (inactive) | GI50 (M19-MEL): 31.1 µM (inactive) | GI50 (HOP-18): 35.8 µM (inactive) | GI50 (RXF 393): 26.9 µM (inactive) | GI50 (SNB-19): 45.9 µM (inactive) | GI50 (UACC-257): 24.5 µM (inactive) | GI50 (KM12): 28.2 µM (inactive) | GI50 (XF498): 24.3 µM (inactive) | GI50 (DLD-1): 33.4 µM (inactive) | GI50 (HCT-15): 22.9 µM | GI50 (A549): 37.4 µM (inactive) | GI50 (A498): 23.2 µM (inactive) | GI50 (HCC 2998): 19 µM (inactive) | GI50 (OVCAR-3): 23.6 µM (inactive) | GI50 (NCI-H23): 28.2 µM (inactive) | GI50 (SNB-75): 33.7 µM (inactive) | GI50 (SF-268): 43 µM (inactive) | GI50 (SK-MEL-2): 32 µM (inactive) | GI50 (TK-10): > 100 µM (inactive) | GI50 (SF-295): 30.2 µM (inactive) | GI50 (SK-OV-3): > 100 µM (inactive) | GI50 (ACHN): 27.5 µM (inactive) | GI50 (M14): 35.3 µM (inactive) | GI50 (HOP-62): 48 µM (inactive) | GI50 (SK-MEL-5): 25 µM (inactive) | GI50 (NCI-H460): 29.3 µM (inactive) | GI50 (KM-20L2): 40.1 µM (inactive) | GI50 (SW-620): 35.5 µM (inactive) | GI50 (Malme-3M): 26.6 µM (inactive) | GI50 (DMS-114): 21.7 µM (inactive) | GI50 (786-0): 30.8 µM (inactive) | GI50 (UO-31): 31 µM (inactive) | GI50 (UACC-62): 20.7 µM (inactive) | GI50 (OVCAR-5): > 100 µM (inactive) | GI50 (HOP-92): 25.8 µM (inactive) | GI50 (OVCAR-4): 32.1 µM (inactive) | GI50 (SK-MEL-28): 41.7 µM (inactive) | GI50 (COLO 205): 27.1 µM (inactive) | GI50 (NCI-H522): 20.3 µM (inactive) | GI50 (RPMI-8226): 23.6 µM (inactive) | GI50 (CCRF-CEM): 21.4 µM (inactive) | GI50 (HCT-116): 30.5 µM (inactive) | GI50 (LXFL 529): 38.3 µM (inactive) | GI50 (SN12C): 34.9 µM (inactive) | GI50 (EKVX): 31 µM (inactive) | GI50 (OVCAR-8): 38 µM (inactive) | GI50 (IGROV-1): 41.3 µM (inactive) | GI50 (SNB-78): 48 µM (inactive) | GI50 (NCI-H226): 43.8 µM (inactive)
